Here are results for 24 molecules from patent publication US20190002436A1, “RESPIRATORY SYNCYTIAL VIRUS INHIBITORS” (MEDIVIR AB, priority 2015, published 2019).

One assay concerns RSV (Long). Briefly: RSV cytopathic effect (CPE)-based viral replication assay. The format is cell-based, respiratory syncytial virus (RSV). The note with it: HEp-2 cells infected with RSV Long at MOI 0.015; 3 days at 37° C.; cell viability by CellTiter-Glo luminescence; read-out: EC50 (nm). An outline of the steps: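 HEp-2 cells, 2,500 per well in DMEM with 2% heat-inactivated FBS, treated with 10-point compound dilutions and infected with RSV Long at MOI 0.015. After 3 days at 37 °C, 5% CO2, viability read by CellTiter-Glo luminescence; EC50 derived from CPE data.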
As to `CS(=O)(=O)Nc1ccc(-c2c(CN3C(=O)C4(CN(C(=O)C5(N)CC5)C4)c4ccccc43)ncc3ccccc23)cc1` [Example 132b, N-(4-(3-((1-(1-aminocyclopropanecarbonyl)-2′-oxospiro[azetidine-3,3′-indolin]-1′-yl)methyl)isoquinolin-4-yl)phenyl)methanesulfonamide], the EC50 is 5.1 nM.

Staying with this assay, now noted: human respiratory syncytial virus, HEp-2, 72 h, HEp-2 cells infected with RSV Long at MOI 0.015; 3 days at 37° C.; cell viability by CellTiter-Glo luminescence; read-out: EC50 (nm).
As for `CS(=O)(=O)N1CCC2(CC1)C(=O)N(Cc1ncc3ccccc3c1-c1ccc(C3(N)CC3)nc1)c1cnccc12` [Example 2026], the EC50 was found to be 2.2 nM. On the same count and under the same terms, as for `NC1(C(=O)N2CC3(C2)C(=O)N(Cc2ncc4ccccc4c2-c2ccc(S(N)(=O)=O)cc2)c2ccccc23)CC1` [Example 125, 4-(3-((1-(1-aminocyclopropanecarbonyl)-2′-oxospiro[azetidine-3,3′-indolin]-1′-yl)methyl)isoquinolin-4-yl)benzenesulfonamide], the figure is 6 nM; as for `CS(=O)(=O)N1CC2(C1)C(=O)N(Cc1ncc3ccccc3c1-c1ccc(F)cc1)c1ccccc12` [Example 74], 5.8 nM; as for `O=c1n(Cc2ncc3ccccc3c2CCCCO)c2cnccc2n1-c1ccc(F)cc1` [Example 4c, 1-(4-fluorophenyl)-3-((4-(4-hydroxybutyl)isoquinolin-3-yl)methyl)-1H-imidazo[4,5-c]pyridin-2(3H)-one], 20 nM. In the case of `COC(=O)N1CCC2(CC1)C(=O)N(Cc1ncc3cc(Cl)ccc3c1-c1ccncc1)c1cnccc12` [Example 165b, Methyl 1′-((7-chloro-4-(pyridin-4-yl)isoquinolin-3-yl)methyl)-2′-oxo-1′,2′-dihydrospiro[piperidine-4,3′-pyrrolo[2,3-c]pyridine]-1-carboxylate], the EC50 stood at 1.8 nM. Consider `COC(=O)N1CCC(n2c(=O)n(Cc3ncc4cc(F)ccc4c3CCCCO)c3cnccc32)CC1` [Example 7b, Methyl 4-(3-((7-fluoro-4-(4-hydroxybutyl)isoquinolin-3-yl)methyl)-2-oxo-2,3-dihydro-1H-imidazo[4,5-c]pyridin-1-yl)piperidine-1-carboxylate], for which the EC50 is 11 nM.

Take `O=C(C1CCNCC1)N1CCC2(CC1)C(=O)N(Cc1ncc3ccccc3c1-c1cccnc1)c1cnccc12` [Example 140, 1-(piperidine-4-carbonyl)-1′-((4-(pyridin-3-yl)isoquinolin-3-yl)methyl)spiro[piperidine-4,3′-pyrrolo[2,3-c]pyridin]-2′(1′H)-one]: the EC50 came out at 3.4 nM.

As for `CS(=O)(=O)N1CCC2(CC1)C(=O)N(Cc1ncc3ccccc3c1-c1cn[nH]c1)c1cnccc12` [Example 2029], the EC50 came out at 2.6 nM. With `N#Cc1ccc(-c2c(CN3C(=O)C4(CCN(C(=O)C(F)(F)F)CC4)c4ccncc43)ncc3ccccc23)cn1` [Example 66-2, 5-(3-((2′-Oxo-1-(2,2,2-trifluoroacetyl)spiro[piperidine-4,3′-pyrrolo[2,3-c]pyridin]-1′(2′H)-yl)methyl)isoquinolin-4-yl)picolinonitrile], the EC50 turned out to be 6 nM.

`N#Cc1ccc(-c2c(CN3C(=O)C4(CCN(C(=O)C5(N)CC5)CC4)c4ccncc43)ncc3ccccc23)cn1` [Example 65, 5-(3-((1-(1-aminocyclopropanecarbonyl)-2′-oxospiro[piperidine-4,3′-pyrrolo[2,3-c]pyridin]-1′(2′H)-yl)methyl)isoquinolin-4-yl)picolinonitrile]: the EC50 is 6.4 nM. As to `COC(=O)N1CC2(C1)C(=O)N(Cc1ncc3ccccc3c1-c1ccc(NS(C)(=O)=O)nc1)c1cnccc12` [Example 167d, methyl 1′-((4-(6-(methylsulfonamido)pyridin-3-yl)isoquinolin-3-yl)methyl)-2′-oxo-1′,2′-dihydrospiro[azetidine-3,3′-pyrrolo[2,3-c]pyridine]-1-carboxylate], the EC50 stood at 4.8 nM. Turning to `CS(=O)(=O)N1CCC2(CC1)C(=O)N(Cc1ncc3ccccc3c1-c1ccc(C#N)nc1)c1cnccc12` [Example 66-1, 5-(3-((1-(Methylsulfonyl)-2′-oxospiro[piperidine-4,3′-pyrrolo[2,3-c]pyridin]-1′(2′H)-yl)methyl)isoquinolin-4-yl)picolinonitrile], the EC50 came to 2.6 nM. In the case of `NC1(C(=O)N2CCC3(CC2)C(=O)N(Cc2ncc4ccccc4c2-c2cnco2)c2cnccc23)CC1` [Example 2043], the EC50 stood at 40 nM. For `O=c1n(Cc2ncc3ccccc3c2CCCCO)c2cnccc2n1S(=O)(=O)C1CC1` [Example 22b, 1-(cyclopropylsulfonyl)-3-((4-(4-hydroxybutyl)isoquinolin-3-yl)methyl)-1H-imidazo[4,5-c]pyridin-2(3H)-one], the EC50 worked out at 15 nM. The same measure, in the same setting: as for `COC(=O)N1CC2(C1)C(=O)N(Cc1ncc3ccccc3c1-c1ccc(NS(C)(=O)=O)cc1)c1ccccc12` [Example 105, methyl 1′-((4-(4-(methylsulfonamido)phenyl)isoquinolin-3-yl)methyl)-2′-oxospiro[azetidine-3,3′-indoline]-1-carboxylate], the figure is 0.85 nM. With `O=C1N(Cc2ncc3ccccc3c2CCCCO)c2cnccc2C12CC2` [Example 49, 1′-((4-(4-hydroxybutyl)isoquinolin-3-yl)methyl)spiro[cyclopropane-1,3′-pyrrolo[2,3-c]pyridin]-2′(1′H)-one], the EC50 was 18 nM. For `N#Cc1ccc(-c2c(CN3C(=O)C4(CN(C(=O)C5(N)CC5)C4)c4ccccc43)ncc3ccccc23)cn1` [Example 60c, 5-(3-((1-(1-Aminocyclopropanecarbonyl)-2′-oxospiro[azetidine-3,3′-indolin]-1′-yl)methyl)isoquinolin-4-yl)picolinonitrile], the concentration giving a half-maximal response (EC50) came to 25 nM.

In the case of `CS(=O)(=O)c1ccc(-c2c(Cn3c(=O)n(C4CC4)c4ccncc43)ncc3ccccc23)cc1` [Example 69d, 1-cyclopropyl-3-((4-(4-(methylsulfonyl)phenyl)isoquinolin-3-yl)methyl)-1H-imidazo[4,5-c]pyridin-2(3H)-one], the EC50 came out at 5.8 nM. `CS(=O)(=O)N1CCC2(CC1)C(=O)N(Cc1ncc3ccccc3c1-c1cncs1)c1cnccc12` [Example 98c]: the EC50 came to 1.9 nM.

Turning to `COC(=O)N1CCC(n2c(=O)n(Cc3ncc4ccccc4c3CCCC(F)(F)F)c3cnccc32)CC1` [Example 9b, methyl 4-(2-oxo-3-((4-(4,4,4-trifluorobutyl)isoquinolin-3-yl)methyl)-2,3-dihydro-1H-imidazo[4,5-c]pyridin-1-yl)piperidine-1-carboxylate], the EC50 worked out at 4 nM. `CC(C)(C)c1ccc(-c2c(CN3C(=O)C4(CN(S(C)(=O)=O)C4)c4ccccc43)ncc3ccccc23)cc1` [Example 71, 1′-((4-(4-(Tert-butyl)phenyl)isoquinolin-3-yl)methyl)-1-(methylsulfonyl)spiro[azetidine-3,3′-indolin]-2′-one]: the EC50 is 200 nM.

Take `CC(C)(O)C(=O)N1CC2(C1)C(=O)N(Cc1ncc3ccccc3c1-c1cccnc1)c1ccccc12` [Example 118, 1-(2-hydroxy-2-methylpropanoyl)-1′-((4-(pyridin-3-yl)isoquinolin-3-yl)methyl)spiro[azetidine-3,3′-indolin]-2′-one]: the EC50 came to 3.8 nM. Take `NC(=O)c1ccc(-c2c(CN3C(=O)C4(CCN(C(=O)[C@@H]5CCCN5)CC4)c4ccncc43)ncc3ccccc23)cn1` [Example 2033]: the EC50 came out at 27 nM.

In general, EC50 refers to the concentration that produces a half-maximal response.
